Test results published in article PMC12051620, “Molecular basis underlying the specificity of an antagonist AA92593 for mammalian melanopsins” (The Journal of Biological Chemistry, 2025).

How the values were obtained:
[1] = system: mouse melanopsin L207^5.42F mutant; test: GsX GloSensor assay with Gsα/q11; assay type: cell-based; conditions: 16.7 μM AA92593, COS-1 cells
Description: (§1) Next, we attempted to render human melanopsin more ineffective to AA92593 by combining W189^ECL2F with F94^2.61C/S188^ECL2T/S269^6.52A. […] We note that the loss of sensitivity for AA92593 by the quadruple substitutions was not due to the substitutions-induced changes in absorption spectrum or localization in COS-1 cells. […] In the GloSensor assay, a small difference in G protein activation between the triple and quadruple mutants in the presence of AA92593 would be amplified through the second messenger signaling cascade.
(§2) For GloSensor assay, opsins, GloSensor assay sensor (coded by pGlo-22F), and NanoBiT-tagged G proteins were transiently expressed in COS-1 cells (kindly provided from Dr David Farrens, Oregon Health and Science University) using PEI as described previously ([24], [52]). For the GsX GloSensor assay ([12], [13]), each well of a 96-well assay plate (Corning) was transfected with 50 ng opsin plasmid, 16.7 ng G protein plasmid, 50 ng pGlo-22F plasmid (Promega), and 500 ng PEI in 25 μl Opti-mem and 75 μl Dulbecco's modified Eagle's medium (D-MEM). […] For GFP-fluorescence microscopy, a 35-mm cell culture dish (IWAKI) was transfected with 2 μg melanopsin-GFP plasmid and 8 μg PEI in 400 μl Opti-mem and 1.2 ml D-MEM. […]

[2] = molecular target: T1, human melanopsin F94^2.61C/S188^ECL2T/W189^ECL2F/S269^6.52A mutant (Homo sapiens, UniProt Q9UHM6, F127C/S222T/S313A/W223F); test: GsX GloSensor assay with Gsα/q11; assay type: cell-based; conditions: up to 16.7 μM AA92593, COS-1 cells
T1 construct: expressed in transfected cells; host or cells: COS-1
Description: as §1, §2

T1 sequence (Q9UHM6 1-384 F127C/S222T/W223F/S313A): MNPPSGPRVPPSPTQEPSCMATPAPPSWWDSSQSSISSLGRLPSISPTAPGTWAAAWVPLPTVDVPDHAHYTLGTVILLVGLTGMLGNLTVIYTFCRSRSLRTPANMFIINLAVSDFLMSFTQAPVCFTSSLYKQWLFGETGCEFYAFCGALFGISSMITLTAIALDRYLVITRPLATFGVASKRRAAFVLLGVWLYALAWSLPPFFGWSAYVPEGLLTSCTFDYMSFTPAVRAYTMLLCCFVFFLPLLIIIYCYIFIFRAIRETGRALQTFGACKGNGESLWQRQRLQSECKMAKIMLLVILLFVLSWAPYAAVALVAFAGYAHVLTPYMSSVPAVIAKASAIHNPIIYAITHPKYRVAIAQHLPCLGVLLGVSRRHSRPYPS

## COc1ccc(S(=O)(=O)N2CCCCC2)cc1C [AA92593]
[1]
  increased susceptibility to the antagonist vs WT: ~26%
[2]
  sensitivity to AA92593: almost completely lost sensitivity
